What was measured:
[1] = target: T1, PSMA (Homo sapiens, UniProt Q04609); assay: Competitive binding experiments: preincubation with unlabeled CTT-54 before the radiolabeled probe; assay type: cell-based; settings: 0 nM CTT-54, probe 2 hours
T1 construct: endogenous in cells; host or cells: LNCaP

[2] = test system: LNCaP (PSMA+) cells; assay: Uptake of 99mTc-labeled DTPA-SCN-CTT-54 by cells, as percentage of total probe applied; assay type: cell-based
Protocol: (§1) Both LNCaP (PSMA+) and PC3 (PSMA−) cells were treated with DTPA-SCN-CTT-54 labeled with pertechnetate (^99mTcO4^−) reduced with SnCl2. At increasing time points at 37° C., cells were washed free of the probe and uptake was determined as a percentage of the total amount of probe applied.

[3] = test system: LNCaP (PSMA+) cells; assay: Extent of internalization of the 99mTc-labeled probe; assay type: cell-based
Protocol: as §1

[4] = test system: LNCaP PSMA+ tumor xenografts; assay: Biodistribution of the 99mTc-labeled probe in mice bearing LNCaP and PC3 tumor xenografts; assay type: in vivo, mouse; settings: LNCaP PSMA+ tumor xenograft, 4 hours following tail-vein injection
Text: Both PSMA+ (LNCaP) and PSMA− (PC3) tumor xenografts were implanted in opposite rear flanks of each mouse. Thus, each mouse served as both a positive and negative control.

T1 sequence (Q04609 whole entry): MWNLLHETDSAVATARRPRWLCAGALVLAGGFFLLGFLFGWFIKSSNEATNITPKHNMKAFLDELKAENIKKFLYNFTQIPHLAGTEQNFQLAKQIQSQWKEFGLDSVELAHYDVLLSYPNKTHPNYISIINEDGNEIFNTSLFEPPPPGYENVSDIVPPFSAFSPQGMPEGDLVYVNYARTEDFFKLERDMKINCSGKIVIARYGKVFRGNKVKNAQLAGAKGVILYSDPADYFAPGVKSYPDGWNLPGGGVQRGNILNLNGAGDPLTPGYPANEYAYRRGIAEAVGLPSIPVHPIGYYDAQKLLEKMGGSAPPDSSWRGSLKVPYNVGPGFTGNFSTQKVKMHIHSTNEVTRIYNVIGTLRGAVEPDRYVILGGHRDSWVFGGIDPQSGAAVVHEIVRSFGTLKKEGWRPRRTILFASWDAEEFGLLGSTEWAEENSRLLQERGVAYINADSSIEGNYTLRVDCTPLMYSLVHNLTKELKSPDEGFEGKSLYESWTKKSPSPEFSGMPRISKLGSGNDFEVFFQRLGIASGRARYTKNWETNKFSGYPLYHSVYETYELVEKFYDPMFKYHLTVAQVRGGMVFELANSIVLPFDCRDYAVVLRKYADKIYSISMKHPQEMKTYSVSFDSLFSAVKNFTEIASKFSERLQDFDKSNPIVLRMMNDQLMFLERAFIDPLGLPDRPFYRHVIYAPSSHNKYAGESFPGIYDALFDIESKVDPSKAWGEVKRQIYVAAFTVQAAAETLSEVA

| % Uptake of the radiolabeled probe without competitor [1] | Structure (SMILES) | time for binding to the cell surface [2] | % uptake ([2]; 30 min) | % uptake ([2]; 2 hr) | % uptake ([2]; 4 hr) | uptake (LNCaP versus PC3 cells) ([2]; labeled with pertechnetate (99mTcO4−) reduced with SnCl2, increasing time points at 37° C.) | % internalization ([3]; 30 min) | % internalization ([3]; 2 hr) | % internalization ([3]; 4 hr) | extent of internalization of the probe ([3]; preliminary studies) | internalization ([3]; within 30 min) | uptake in tumor xenografts (biodistribution) [4] |
| --- | --- | --- | --- | --- | --- | --- | --- | --- | --- | --- | --- | --- |
| 4.46% | O=C(O)CC[C@H](NP(=O)(O)OC[C@H](NC(=O)CC[C@H](NC(=S)Nc1ccc(CC(CN(CCN(CC(=O)O)CC(=O)O)CC(=O)O)N(CC(=O)O)CC(=O)O)cc1)C(=O)O)C(=O)O)C(=O)O (stereo partly drawn) [DTPA-SCN-CTT-54, N-{[(4-{2-[bis(carboxymethyl)amino]-3-[{2-[bis(carboxymethyl)amino]ethyl} (carboxymethyl)amino]propyl}phenyl)amino]carbonothioyl}-L-γ-glutamyl-O-[{[(1S)-1,3-dicarboxypropyl]amino} (hydroxy)phosphoryl]-L-serine] | – | – | – | – | – | – | – | – | – | – | – |
| – | O=C(O)CC[C@H](NP(=O)(O)OC[C@H](NC(=O)CC[C@H](NC(=S)Nc1ccc(CC(CN(CCN(CC(=O)O)CC(=O)O)CC(=O)O)N(CC(=O)O)CC(=O)O)cc1)C(=O)O)C(=O)O)C(=O)O (stereo partly drawn) (99mTc complex, metal not drawn) [DTPA-SCN-CTT-54, N-{[(4-{2-[bis(carboxymethyl)amino]-3-[{2-[bis(carboxymethyl)amino]ethyl} (carboxymethyl)amino]propyl}phenyl)amino]carbonothioyl}-L-γ-glutamyl-O-[{[(1S)-1,3-dicarboxypropyl]amino} (hydroxy)phosphoryl]-L-serine] | ≤ 30 min | 2.30% | 2.94% | 2.34% | exclusive for LNCaP cells | 71.9% | 71.0% | 79.5% | greater than 80% | greater than 70% | substantial uptake |

Source: patent publication US9328129B2, “Peptidomimetic inhibitors of PSMA” (Washington State University, priority 2010, dated 2016)
